{"source": "paper PMC3908770", "about": "(Journal of medicinal chemistry, 2013)", "key": {"[1]": {"details": "Cmax minimum active dose AHL versus Cmax minimum adverse effect dose; cited from earlier work"}, "[2]": {"details": "cited from earlier work; for Seizure activity / liability in vivo: rodents"}, "[3]": {"molecular_target": "T1, rat mGlu5 (Rattus norvegicus, UniProt P31424)", "T1 sequence (P31424 21-1203)": "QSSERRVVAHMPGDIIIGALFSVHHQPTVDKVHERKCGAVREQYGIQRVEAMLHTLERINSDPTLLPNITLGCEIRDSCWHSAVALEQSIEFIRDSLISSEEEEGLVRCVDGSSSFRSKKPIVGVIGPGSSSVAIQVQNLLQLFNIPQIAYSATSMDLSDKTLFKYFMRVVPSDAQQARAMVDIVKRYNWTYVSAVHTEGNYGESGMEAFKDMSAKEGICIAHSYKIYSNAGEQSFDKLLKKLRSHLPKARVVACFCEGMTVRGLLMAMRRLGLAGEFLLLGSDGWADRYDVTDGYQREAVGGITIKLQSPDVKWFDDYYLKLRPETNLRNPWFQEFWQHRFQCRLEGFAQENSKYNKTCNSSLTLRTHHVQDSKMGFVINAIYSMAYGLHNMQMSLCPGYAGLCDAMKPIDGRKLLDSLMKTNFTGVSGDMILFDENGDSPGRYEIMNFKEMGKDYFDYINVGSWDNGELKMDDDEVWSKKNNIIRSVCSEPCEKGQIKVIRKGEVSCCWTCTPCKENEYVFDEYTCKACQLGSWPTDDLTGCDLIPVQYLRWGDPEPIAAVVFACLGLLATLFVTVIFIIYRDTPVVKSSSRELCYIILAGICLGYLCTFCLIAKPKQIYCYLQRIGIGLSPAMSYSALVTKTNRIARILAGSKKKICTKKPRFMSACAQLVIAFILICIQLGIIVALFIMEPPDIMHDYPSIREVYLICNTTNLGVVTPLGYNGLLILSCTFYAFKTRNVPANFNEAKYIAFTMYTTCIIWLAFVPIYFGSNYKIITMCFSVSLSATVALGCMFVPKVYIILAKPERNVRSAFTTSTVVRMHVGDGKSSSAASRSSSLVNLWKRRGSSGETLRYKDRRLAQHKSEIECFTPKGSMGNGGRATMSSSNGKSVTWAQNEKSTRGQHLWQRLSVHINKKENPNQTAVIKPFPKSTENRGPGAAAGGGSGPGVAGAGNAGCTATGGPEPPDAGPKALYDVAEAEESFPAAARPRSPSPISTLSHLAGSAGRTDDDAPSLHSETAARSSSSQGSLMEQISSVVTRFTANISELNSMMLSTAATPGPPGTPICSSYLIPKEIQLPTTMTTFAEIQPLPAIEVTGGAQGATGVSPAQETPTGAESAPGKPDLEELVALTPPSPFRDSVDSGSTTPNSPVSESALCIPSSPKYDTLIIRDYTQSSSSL", "details": "cited from earlier work"}, "[4]": {"test_system": "CA3 pyramidal neurons", "details": "hippocampal preparations; prior studies; cited from earlier work"}, "[5]": {"test_system": "Schaffer collateral – CA1 (SC-CA1) synapse", "details": "cited from earlier work"}, "[6]": {"details": "human; cited from earlier work"}, "[7]": {"details": "rat; cited from earlier work"}, "[8]": {"details": "cited from earlier work"}, "[9]": {"molecular_target": "mGlu5 W784A (Rattus norvegicus, UniProt P31424, W784A)", "sequence (P31424 21-1203 W784A)": "as the sequence (P31424 21-1203) above, with W764A counted along it", "test": "Progressive fold-shift at mGlu5 point mutant, operational model of allosterism"}, "[10]": {"test": "Amphetamine induced hyperlocomotion, in vivo model of psychosis", "details": "high dose, preliminary"}, "[11]": {"test_system": "panel of 68 GPCRs, ion channels and transporters", "test": "Off-target panel screen", "assay_type": "binding", "details": "10 µM, 68 targets"}, "[12]": {"molecular_target": "T1, rat mGlu5", "details": "increasing concentrations"}, "[13]": {"molecular_target": "mGlu5 S808A (Rattus norvegicus, UniProt P31424, S808A)", "sequence (P31424 21-1203 S808A)": "as the sequence (P31424 21-1203) above, with S788A counted along it", "test": "Progressive fold-shift at mGlu5 point mutant, operational model of allosterism"}, "[14]": {"test_system": "Schaffer collateral – CA1 (SC-CA1) synapse", "test": "Long-term depression", "details": "compound on its own, rat hippocampus"}, "[15]": {"molecular_target": "T1, rat mGlu5", "details": "operational model of allosterism"}}, "note": "Entries after “also recorded” stand apart in the source; their conditions may differ. Like-named read-outs stand apart in the source and are kept apart here."}
{"smiles": "C[C@@H]1CC[C@H](c2noc(-c3ccc(F)cn3)n2)CN1C(=O)c1ccccc1", "note": "[Compound 5PAM523]", "values": [{"measurement": "Therapeutic index", "setting": "[1]", "result": 2, "unit": "fold"}]}
{"smiles": "O=C1c2ccc(F)cc2CCC2CC[C@@H](c3noc(-c4ccc(F)cn4)n3)CN12", "note": "(stereo partly shown) [Compound 5PAM916]", "values": [{"measurement": "Therapeutic index", "setting": "[1]", "result": 18, "unit": "fold"}]}
{"smiles": "C[C@@H](NC(=O)c1ccc(C#Cc2cccc(F)c2)cn1)C(C)(C)O", "note": "[Compound 19, (R)-5-((3-Fluorophenyl)ethynyl)-N-(3-hydroxy-3-methylbutan-2-yl)picolinamide]", "values": [{"measurement": "Seizure activity / liability in vivo", "setting": "[2]", "result": "causes seizure activity"}, {"measurement": "Allosteric agonism in mGlu5 cell line with low receptor density", "setting": "[3]", "result": "ago-PAM activity"}, {"measurement": "Epileptiform activity in CA3 pyramidal neurons", "setting": "[4]", "result": "induction of epileptiform activity"}, {"measurement": "Induction of LTD at SC-CA1 synapse", "setting": "[5]", "result": "induces LTD"}]}
{"smiles": "O=C(c1ccc(C#Cc2cccc(F)c2)nc1)N1CCC(O)CC1", "note": "[Compound 20]", "values": [{"measurement": "Seizure activity / liability in vivo", "setting": "[2]", "result": "did not display a seizure liability"}, {"measurement": "Allosteric agonism in mGlu5 cell line with low receptor density", "setting": "[3]", "result": "devoid of agonism"}]}
{"smiles": "O=C(NC1CCC1)c1ccc(C#Cc2cccc(F)c2)cn1", "note": "[Compound 21]", "values": [{"measurement": "Seizure liability in animal models", "setting": "[2]", "result": "possesses a seizure liability"}, {"measurement": "Plasma protein binding", "setting": "[6]", "result": "> 99", "unit": "% bound"}, {"measurement": "fu plasma", "setting": "[6]", "result": "< 1", "unit": "%"}, {"measurement": "Agonist activity in mGlu5 low-expressing cell line", "setting": "[3]", "result": "demonstrates agonist activity"}, {"measurement": "Plasma protein binding", "setting": "[7]", "result": "> 99", "unit": "% bound"}, {"measurement": "fu plasma", "setting": "[7]", "result": "< 1", "unit": "%"}]}
{"smiles": "O=C(N[C@H]1C[C@H](O)C1)c1ccc(C#Cc2cccc(F)c2)cn1", "note": "[Compound 22]", "values": [{"measurement": "Agonist activity in mGlu5 low-expressing cell line", "setting": "[3]", "result": "significant ago-PAM activity"}]}
{"smiles": "O=C(NC1CCC1)c1ccc(C#Cc2cccc(F)c2)nc1", "note": "[Compound 26]", "values": [{"measurement": "Plasma protein binding", "setting": "[8]", "result": 98.9, "unit": "%"}]}
{"smiles": "C[C@@H](NC(=O)c1ccc(C#Cc2ccccn2)cn1)C(C)(C)O", "note": "[Compound 31i, (R)-N-(3-Hydroxy-3-methylbutan-2-yl)-5-(pyridin-2-ylethynyl)picolinamide]", "values": [{"measurement": "Effect of W784A mutation", "setting": "[9]", "result": "gain in allosteric agonist activity"}]}
{"smiles": "CC1(NC(=O)c2ccc(C#Cc3cccc(F)c3)cn2)COC1", "note": "[Compound 38t, 5-((3-Fluorophenyl)ethynyl)-N-(3-methyloxetan-3-yl)picolinamide]", "values": [{"measurement": "Behavioral disturbances", "setting": "[10]", "result": "no overt behavioral disturbances"}, {"measurement": "Reversal of amphetamine induced hyperlocomotion", "setting": "[10]; data not shown", "result": "robust reversal"}, {"measurement": "Off target activity", "setting": "[11]", "result": "no significant off target activity"}, {"measurement": "Inhibition of [^3H]methoxyPEPy binding", "setting": "[12]", "result": "complete inhibition"}, {"measurement": "Effect of S808A mutation", "setting": "[13]", "result": "NAM switch"}, {"measurement": "Induction of LTD at SC-CA1 synapse", "setting": "[14]", "result": "no effect; also recorded: does not induce LTD"}, {"measurement": "Efficacy cooperativity factor (logβ) between glutamate and modulator", "setting": "[15]", "result": 0.34}, {"measurement": "Predicted affinity (log value)", "setting": "[15]; progressive fold-shift", "result": "−6.81"}]}
